# Where two headings read alike, the source gives them in different places.
# Assays:
# SIM-A9 cells [1] = assay: LC-MS determination of total MDA, SIM-A9; type: cell-based, mouse; settings: all time intervals
# SIM-A9 cells [2] = assay: Intracellular O2•-, DHE probe, SIM-A9; type: cell-based, mouse
# mGAT4 = target: T1, mGAT4 (Mus musculus, UniProt P31650); assay: [3H]GABA uptake assay, mGAT4; type: cell-based
# T1 sequence (P31650 1-627): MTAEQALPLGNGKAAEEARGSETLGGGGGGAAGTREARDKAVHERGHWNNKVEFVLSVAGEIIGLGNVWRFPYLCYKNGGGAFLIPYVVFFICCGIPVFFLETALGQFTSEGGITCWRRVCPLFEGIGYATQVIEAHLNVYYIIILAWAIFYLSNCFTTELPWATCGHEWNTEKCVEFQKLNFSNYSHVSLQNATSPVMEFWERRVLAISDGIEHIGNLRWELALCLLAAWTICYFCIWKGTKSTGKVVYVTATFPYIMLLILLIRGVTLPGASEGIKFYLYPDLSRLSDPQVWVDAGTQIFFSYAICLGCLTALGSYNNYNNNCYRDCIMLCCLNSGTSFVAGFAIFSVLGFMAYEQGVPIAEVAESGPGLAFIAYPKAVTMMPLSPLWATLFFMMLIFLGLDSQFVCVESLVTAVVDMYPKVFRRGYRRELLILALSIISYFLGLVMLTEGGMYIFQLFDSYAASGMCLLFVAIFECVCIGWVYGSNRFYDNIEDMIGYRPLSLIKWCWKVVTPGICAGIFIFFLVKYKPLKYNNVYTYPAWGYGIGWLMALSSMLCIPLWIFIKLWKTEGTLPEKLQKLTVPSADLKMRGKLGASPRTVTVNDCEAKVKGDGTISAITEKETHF
# [3] = target: serotonin transporter (SERT) (Homo sapiens, UniProt P31645); assay: Interaction with serotonin transporter
# serotonin transporter (SERT), sequence (P31645 whole entry, species assumed): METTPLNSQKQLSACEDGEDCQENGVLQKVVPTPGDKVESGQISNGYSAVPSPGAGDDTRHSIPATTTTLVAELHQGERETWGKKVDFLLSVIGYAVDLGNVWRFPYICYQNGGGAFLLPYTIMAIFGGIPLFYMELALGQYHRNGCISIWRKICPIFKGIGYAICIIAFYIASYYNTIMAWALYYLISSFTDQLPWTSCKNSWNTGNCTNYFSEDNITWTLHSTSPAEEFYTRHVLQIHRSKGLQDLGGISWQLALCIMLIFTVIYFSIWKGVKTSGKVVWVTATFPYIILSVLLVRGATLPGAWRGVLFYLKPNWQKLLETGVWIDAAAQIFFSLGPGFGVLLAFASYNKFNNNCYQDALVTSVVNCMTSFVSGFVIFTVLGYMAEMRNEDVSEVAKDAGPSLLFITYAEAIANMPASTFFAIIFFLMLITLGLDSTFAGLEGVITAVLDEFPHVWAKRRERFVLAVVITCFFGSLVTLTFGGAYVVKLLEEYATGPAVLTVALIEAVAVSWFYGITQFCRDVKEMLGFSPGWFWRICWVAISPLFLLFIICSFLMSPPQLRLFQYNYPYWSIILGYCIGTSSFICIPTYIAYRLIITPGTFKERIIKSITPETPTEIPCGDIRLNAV
# [4] = target: T2, human butyrylcholinesterase (hBuChE) (Homo sapiens, UniProt P06276); assay: biochemical; settings: means±SEM of at least three experiments
# T2 construct: from human plasma was from Vivonics (Bedford, MA, USA); purchased Vivonics (Bedford, MA, USA); host or cells: human plasma
# T2 sequence (P06276 29-602): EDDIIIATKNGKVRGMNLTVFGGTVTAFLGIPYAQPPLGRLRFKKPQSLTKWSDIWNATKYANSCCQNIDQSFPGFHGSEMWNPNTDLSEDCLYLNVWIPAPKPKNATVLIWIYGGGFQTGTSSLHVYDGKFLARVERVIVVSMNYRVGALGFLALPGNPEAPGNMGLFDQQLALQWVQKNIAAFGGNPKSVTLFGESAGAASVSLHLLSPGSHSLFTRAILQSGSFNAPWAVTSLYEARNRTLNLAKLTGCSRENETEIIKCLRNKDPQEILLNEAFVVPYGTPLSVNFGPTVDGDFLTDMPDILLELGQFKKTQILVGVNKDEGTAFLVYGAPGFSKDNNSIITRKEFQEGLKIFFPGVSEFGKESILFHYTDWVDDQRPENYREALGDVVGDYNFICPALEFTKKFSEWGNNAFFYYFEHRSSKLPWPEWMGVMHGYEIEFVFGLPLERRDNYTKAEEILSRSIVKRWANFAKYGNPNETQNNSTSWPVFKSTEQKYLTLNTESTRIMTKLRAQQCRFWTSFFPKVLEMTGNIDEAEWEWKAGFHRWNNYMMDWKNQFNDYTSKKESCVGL
# [5] = tested on: Human neuroblastoma cells SH-SY5Y; assay: MTT cell viability assay, SH-SY5Y; type: cell-based; settings: Homo sapiens, 24 h, read-out: IC50 (MTT) ± SEM
# Excerpt: Human neuroblastoma cells SH-SY5Y and mouse microglial cells SIM-A9 were used to evaluate cell viability, intracellular RONS, and malondialdehyde (MDA; CAS No. 542–78-9).
# SH-SY5y cells were cultivated in Dulbecco's modified Eagle's medium (DMEM; Biosera, Nuaille, France) supplemented with 10% fetal bovine serum (Biosera) and 1% penicillin-streptomycin antibiotic solution (Sigma-Aldrich, St. Louis, MO, USA). The culture medium for SIM-A9 cells was further supplemented with donor horse serum (Biosera). The cells were incubated at 37 °C in a CO2 incubator (BINDER CO2 incubator CB 160, Tuttlingen, Germany) and routinely passaged by trypsinization at 75 –85% confluence.
# Colorimetric Cell Viability Assay
# The toxicological indices IC 50 used in the present study were measured utilizing 3-(4,5-dimethylthiazol-2-yl)-2,5-diphenyl-tetrazolium bromide (MTT) reduction assay after (1 picture or pasted object on this page, not shown here)
# 24 h incubation with tested compounds. […]
# incubation, the cultivation medium containing serially diluted substances was aspirated and replaced with a fresh medium containing MTT at a concentration of 0.5 mg/mL and subsequently incubated at 37 °C for 1 h. […] Cell viability was assessed spectrophotometrically by the amount of formazan produced. Absorbance was measured at 570 nm with 650 nm reference wavelength on Spark (Tecan Group Ltd, Switzerland). […]
# SH-SY5Y cells = assay: Intracellular RONS, DCFH-DA probe, SH-SY5Y; type: cell-based, human; settings: IC50, ½ IC50, ¼ IC50, 1, 4, 24 h
# [6] = target: T3, human serotonin 5-HT7 receptor (Homo sapiens, UniProt P34969); assay: cAMP 5-HT7 functional assay; type: cell-based
# T3 construct: host or cells: CHO-K1 (with CRE-bla reporter)
# T3 sequence (P34969 whole entry): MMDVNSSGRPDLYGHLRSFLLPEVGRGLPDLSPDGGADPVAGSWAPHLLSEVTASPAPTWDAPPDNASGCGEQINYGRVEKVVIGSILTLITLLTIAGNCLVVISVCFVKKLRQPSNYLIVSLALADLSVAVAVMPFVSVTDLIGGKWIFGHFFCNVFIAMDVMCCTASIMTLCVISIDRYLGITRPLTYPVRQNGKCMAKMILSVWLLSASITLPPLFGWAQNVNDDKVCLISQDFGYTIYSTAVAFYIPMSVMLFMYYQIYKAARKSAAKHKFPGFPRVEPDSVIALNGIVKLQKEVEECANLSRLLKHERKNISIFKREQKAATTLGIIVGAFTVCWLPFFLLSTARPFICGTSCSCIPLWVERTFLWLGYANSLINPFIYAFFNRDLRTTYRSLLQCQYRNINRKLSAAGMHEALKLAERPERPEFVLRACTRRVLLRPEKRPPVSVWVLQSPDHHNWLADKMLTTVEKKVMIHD
# Method: Functional assays for 5-HT7 receptor
# Test and reference compounds were dissolved in dimethyl sulfoxide (DMSO) at a
# concentration of 10 mM. Serial dilutions were prepared in a 96-well microplate in assay
# buffer, and 8 to 10 concentrations were tested. For the 5-HT7, adenylyl cyclase activity was
# The functional assay was performed on cells expressing the human 5-
# CHO-K1 cells were transfected with a beta-
# lactamase (bla) reporter gene under the control of the cyclic AMP response element (CRE)
# (Life Technologies). Thawed cells were resuspended in stimulation buffer (HBSS, 5 mM
# HEPES, 0.5 IBMX, and 0.1% BSA at pH 7.4) at 2x10^5 cells/ml for 5-HT7 receptor. The same
# volume (10 μl) of cell suspension was added to tested compounds for the 5 -HT7 receptor.
# Samples were loaded onto a white opaque half-area 96-well microplate. The antagonist
# The agonist and antagonist were added simultaneously. Cell stimulation was
# performed for 1 h at room temperature. After incubation, cAMP measurements were
# performed with homogeneous TR-FRET immunoassay using the LANCE Ultra cAMP kit
# (PerkinElmer, USA). The volume of 10 μl of EucAMP Tracer Working Solution and 10 μl of
# ULight-anti-cAMP Tracer Working Solution were added, mixed, and incubated for 1 h.
# TR-FRET signal was read on an EnVision microplate reader (PerkinElmer, USA). IC50 and
# EC50 were determined by nonlinear regression analysis using GraphPad Prism 9.0 software.
structure (smiles),measurement,setting,value
O[C@H](CNCC1CC1)[C@H](Cc1ccccc1)NC1c2ccccc2-c2ccccc21 [Compound 6],increase in intracellular level of MDA,SIM-A9 cells [1],no significant increase
same,increase in intracellular O2•-,SIM-A9 cells [2]; all concentrations and times,no significant increase
same,decrease of O2•- level,"SIM-A9 cells [2]; conc. = IC50, 24 h",26%
same,IC50,mGAT4,7.76 ± 0.36 µM
same,interaction with SERT,[3],ruled out interactions
same,IC50,[4],0.21 ± 0.01 µM
same,IC50,[5],3.38 ± 0.04 µM
same,increase in intracellular RONS,SH-SY5Y cells,no significant increase
same,Emax,[6]; read-out: 5-HT7 agonist mode E max % [10^-5 M],8%
same,Emax,[6]; read-out: 5-HT7 antagonist mode E max %,0%
